According to patent US6875569B2, “Modified lepidopteran receptors and hybrid multifunctional proteins for use in transcription and regulation of transgene expression” (The Salk Institute for Biological Studies, priority 1997, dated 2005):
“Also recorded” adds a separate entry of the source. Where two headings read alike, the source gives them in different places.

Assays:
tet-transactivator (TTA) = target: T1, tet-transactivator (TTA) (Escherichia coli, UniProt P04483); assay: EcRE-Luc reporter co-transfected with LINX; format: cell-based; details: FIG. 2C
T1 construct: expressed in transfected cells; host or cells: CV-1 cells
Procedure: (§1) Tebufenozide is administered to cells co-transfected with nucleic acids encoding receptors: LINX (which encodes the tet-transactivator (TTA)), VbR, TTMT (which encodes the TTA-VbR fusion protein, and TTMT-2V which is like TTMT, but with two VP16 t-domains), to assay for EcRELuc activity (FIG. 2C). Note that teb stimulates VbR, and the TTMT fusions, but has no action on TTA (LINX). The same experiment as that described for 2C, only with a TetO-Luc reporter which responds only to TTA or fusion proteins is summarized in FIG. 2D. […] Note that in this experiment, TTMT and TTMT-2V work better than TTA only (LINX) to stimulate the TetO-luc promoter/reporter. […] An experiment on CV-1 cells transfected with TTMT and two reporters: 6TetO-luc and 4-EcRE-bgalactosidase show both promoters could be simultaneously influenced by the presence or absence of both ligands (FIG. 2E).
(§2) Transient transfections are performed by calcium-phosphate coprecipitation employing standard methods (see Sambrook et al., in Molecular Cloning: A Laboratory Manual. Cold Spring Harbor Press, New York, N.Y. (1989)). All tissue culture experiments are performed using DMEM 10% FBS in a 10% CO2 incubator unless otherwise specified. […] After 40 additional hours of incubation, cells are harvested and luciferase activity measured in an analytical bioluminescence photometer. […]

[1] = system: modified bombyx hormone receptor (VbR); format: cell-based, bombyx mori
Procedure: (§3) Transient transfection experiments in CV-1 cells or 293 cells using modified drosophila ecdysone receptor (VdEcR) or modified bombyx hormone receptor (VbR) with or without dimer partners as described. Luc activity is examined 40 hours after transfection and stimulation with ligand (FIG. 2A). Both receptors are assayed in CV-1 cells with 1 μM MurA and no exogenous dimer partner. […] Both receptors are also assayed in the presence of 5 μg/ml tebufenozide (FIG. 2B). […] Both receptors are also assayed with and without dimer partners. VbR was stimulated with 5 μg/ml tebufenozide and VdEcR was stimulated with 1 μM MurA. […] VbR, with no exogenous dimer partner, has an extremely low base-line which is stimulated 200-300 fold by ligand. Note also from this experiment that VdEcR tends to have a much higher baseline than VbR without dimer partner.
as §1
Transient transfections are performed by calcium-phosphate coprecipitation employing standard methods (see Sambrook et al., in Molecular Cloning: A Laboratory Manual. Cold Spring Harbor Press, New York, N.Y. (1989)). All tissue culture experiments are performed using DMEM 10% FBS in a 10% CO2 incubator unless otherwise specified. All transfections are performed in triplicate in 24-well Costar plates using CV-1 cells at an approximately 5×10^4 plating density. Immediately following transfection, 1 μm ligand in 20% EtOH/PBS is added to wells. After 40 additional hours of incubation, cells are harvested and luciferase activity measured in an analytical bioluminescence photometer. Cell extracts are simultaneously examined for LacZ activity of the internal control by standard methods. Bar graph levels represent relative luciferase activity after correction using internal control values.

[2] = system: TTMT (TTA-VbR fusion protein); assay: EcRE-Luc reporter co-transfected with TTMT; format: cell-based; details: FIG. 2C
Procedure: as §1, §2

[3] = system: TTMT-2V (TTMT with two VP16 t-domains); assay: EcRE-Luc reporter co-transfected with TTMT-2V; format: cell-based; details: FIG. 2C
Procedure: as §1, §2

[4] = system: modified drosophila ecdysone receptor (VdEcR); format: cell-based
Procedure: as §3, §2

[5] = system: mammals and other non-insect species; details: extensive testing in animal hosts; previously reported; cited from earlier work
VbR = assay: Transgene regulation in stably infected rat fibroblasts (MARSHA reporter, VbR retroviral vector); format: cell-based, bombyx mori; details: 0.25 μg/ml teb vs higher levels; VbR-luc clonal fibroblast line and VbR-GH clonal line, FIG. 3; listed as teb

T1 sequence (P04483 whole entry, added parts left off): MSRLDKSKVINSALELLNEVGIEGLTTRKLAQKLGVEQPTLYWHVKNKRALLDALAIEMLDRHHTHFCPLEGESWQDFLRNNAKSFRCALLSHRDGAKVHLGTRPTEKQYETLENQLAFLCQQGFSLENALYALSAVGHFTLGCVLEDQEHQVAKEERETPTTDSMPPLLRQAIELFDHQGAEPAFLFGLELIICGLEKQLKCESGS

Compound | EcRE-Luc activity with TTA (LINX) (tet-transactivator (TTA)) | stimulation of VbR, side-by side comparison ([1]; 2.5 μg/ml teb) | stimulation of VbR over base-line by ligand ([1]; 5 μg/ml tebufenozide, VbR with no exogenous dimer partner, experiment with and without dimer partners) | effect of ligand on VbR in the presence of exogenous dimer partner ([1]; 5 μg/ml tebufenozide, exogenous dimer partner (RXR, Usp) present, VbR constitutively activated) | induction of Luc activity by VbR ([1]; 5 μg/ml tebufenozide, no exogenous dimer partner, 40 hours after transfection) | EcRE-Luc activity with VbR ([1]; EcRE-Luc reporter, FIG. 2C) | EcRE-Luc activity with TTMT [2] | EcRE-Luc activity with TTMT-2V [3] | response of drosophila EcR (Luc activity) ([4]; 5 μg/ml tebufenozide) | toxicity to mammals [5] | stimulation of full transgene activity, dose comparison (VbR) | stimulation of VbR, side-by side comparison ([1]; 1 μM MurA) | response of bR (Luc activity) ([1]; CV-1 cells, 1 μM MurA, no exogenous dimer partner) | dimer partner requirement for VdEcR stimulation ([4]; 1 μM MurA, with and without dimer partners)
CCc1ccc(C(=O)NN(C(=O)c2cc(C)cc(C)c2)C(C)(C)C)cc1 [tebufenozide] | no action | effective at stimulating VbR | 200-300 fold | inhibited by ligand addition | greater than 200 fold | stimulates | stimulates | stimulates | does not respond at all, and in fact, decreases slightly; also recorded: responds weakly, if at all | very low toxicity | as effective at stimulating full activity as higher levels; also recorded: as effective as higher levels for stimulating full activity | – | – | –
CC(C)CC[C@@H](O)[C@](C)(O)[C@H]1CC[C@@]2(O)C3=CC(=O)[C@]4(O)C[C@@H](O)[C@@H](O)C[C@]4(C)[C@H]3[C@H](O)C[C@]12C [MurA, muristerone A] | – | – | – | – | – | – | – | – | – | – | – | effective at stimulating VbR | responds | RXR and Usp are necessary for VdEcR
